Results reported in ChEMBL document CHEMBL1201862, “PubChem BioAssay data set” (2004).
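Step 1: Grow cells in 96-well plates. Step 2: Expose to compound for 48 hours at 5 concentrations. Step 3: Interpolate endpoints linearly; if unreached, use highest concentration. Abbreviation: GI50, concentration required for 50% inhibition of growth.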 Active and inactive are the calls of the source. No stated cut-off is given here; in the data, active = GI50 up to about 1.1 µM and inactive = higher.

How the values were obtained:
Experiment in all cases: NCI anticancer screen, dose series, 48 h
[1] = tested on: NCI/ADR-RES
[2] = tested on: HCC 2998
[3] = tested on: HCT-15
[4] = tested on: SF-295
[5] = tested on: HOP-62
[6] = tested on: COLO 205
[7] = tested on: UACC-257
[8] = tested on: NCI-H226
[9] = tested on: SK-MEL-2
[10] = tested on: SNB-19
[11] = tested on: SN12C
[12] = tested on: CAKI-1
[13] = tested on: UO-31
[14] = tested on: T47D
[15] = tested on: UACC-62
[16] = tested on: 786-0
[17] = tested on: KM12
[18] = tested on: HCT-116
[19] = tested on: TK-10
[20] = tested on: U-251
[21] = tested on: M14
[22] = tested on: OVCAR-3
[23] = tested on: SF-539
[24] = tested on: NCI-H522
[25] = tested on: EKVX
[26] = tested on: A498
[27] = tested on: LOX IMVI
[28] = tested on: CCRF-CEM
[29] = tested on: OVCAR-8
[30] = tested on: PC-3
[31] = tested on: Malme-3M
[32] = tested on: SK-MEL-5
[33] = tested on: NCI-H23
[34] = tested on: SK-MEL-28
[35] = tested on: DU-145
[36] = tested on: MDA-N
[37] = tested on: SK-OV-3
[38] = tested on: HOP-92
[39] = tested on: RPMI-8226
[40] = tested on: K562
[41] = tested on: MOLT-4
[42] = tested on: SNB-75
[43] = tested on: IGROV-1
[44] = tested on: A549
[45] = tested on: MDA-MB-435
[46] = tested on: SW-620
[47] = tested on: MCF7
[48] = tested on: RXF 393
[49] = tested on: OVCAR-4
[50] = tested on: ACHN
[51] = tested on: MDA-MB-231
[52] = tested on: OVCAR-5
[53] = tested on: SR
[54] = tested on: Hs-578T
[55] = tested on: HL-60
[56] = tested on: HT-29
[57] = tested on: SF-268
[58] = tested on: NCI-H460

CCCNC(=O)N(C)C(=O)N1N=C(c2ccccc2)C1c1ccccc1 (centres undefined)
GI50 [1]: > 100 µM (inactive) | GI50 [2]: 60 µM (inactive) | GI50 [3]: 45.3 µM | GI50 [4]: 64.7 µM (inactive) | GI50 [5]: > 100 µM (inactive) | GI50 [6]: 54.2 µM (inactive) | GI50 [7]: 82.6 µM (inactive) | GI50 [8]: > 100 µM (inactive) | GI50 [9]: > 100 µM (inactive) | GI50 [10]: > 100 µM (inactive) | GI50 [11]: 37 µM (inactive) | GI50 [12]: 75.3 µM (inactive) | GI50 [13]: 50.4 µM (inactive) | GI50 [14]: > 100 µM (inactive) | GI50 [15]: 59.3 µM (inactive) | GI50 [16]: > 100 µM (inactive) | GI50 [17]: 40.5 µM (inactive) | GI50 [18]: 51.8 µM (inactive) | GI50 [19]: > 100 µM (inactive) | GI50 [20]: 89.9 µM (inactive) | GI50 [21]: > 100 µM (inactive) | GI50 [22]: 61.7 µM (inactive) | GI50 [23]: > 100 µM (inactive) | GI50 [24]: 62.4 µM (inactive) | GI50 [25]: > 100 µM (inactive) | GI50 [26]: > 100 µM (inactive) | GI50 [27]: 75.5 µM (inactive) | GI50 [28]: 17.7 µM (inactive) | GI50 [29]: 55.7 µM (inactive) | GI50 [30]: 56.9 µM (inactive) | GI50 [31]: 39.6 µM (inactive) | GI50 [32]: 87.3 µM (inactive) | GI50 [33]: > 100 µM (inactive) | GI50 [34]: > 100 µM (inactive) | GI50 [35]: > 100 µM (inactive) | GI50 [36]: 95.1 µM (inactive) | GI50 [37]: > 100 µM (inactive) | GI50 [38]: 62.4 µM (inactive) | GI50 [39]: 38.2 µM (inactive) | GI50 [40]: 49 µM (inactive) | GI50 [41]: 23.7 µM (inactive) | GI50 [42]: 54.3 µM (inactive) | GI50 [43]: 78.7 µM (inactive) | GI50 [44]: 78.9 µM (inactive) | GI50 [45]: 95.7 µM (inactive) | GI50 [46]: > 100 µM (inactive) | GI50 [47]: > 100 µM (inactive) | GI50 [48]: > 100 µM (inactive) | GI50 [49]: 46.1 µM (inactive) | GI50 [50]: 90.6 µM (inactive) | GI50 [51]: > 100 µM (inactive)

COC(=O)c1ccccc1C1=C([N+](=O)[O-])C(c2cccc(Br)c2)C(C#N)=C(N)O1 (centres undefined)
GI50 [1]: 23.3 µM (inactive) | GI50 [2]: 26.3 µM (inactive) | GI50 [3]: 19.4 µM | GI50 [4]: > 100 µM (inactive) | GI50 [5]: 33 µM (inactive) | GI50 [6]: 33 µM (inactive) | GI50 [7]: 36.1 µM (inactive) | GI50 [8]: > 100 µM (inactive) | GI50 [9]: > 100 µM (inactive) | GI50 [52]: > 100 µM (inactive) | GI50 [10]: 91.6 µM (inactive) | GI50 [53]: 18.2 µM (inactive) | GI50 [11]: 38 µM (inactive) | GI50 [54]: 18.3 µM (inactive) | GI50 [14]: 28.3 µM (inactive) | GI50 [15]: 21 µM (inactive) | GI50 [16]: 25.6 µM (inactive) | GI50 [17]: > 10 µM (inactive) | GI50 [18]: 31.5 µM (inactive) | GI50 [19]: 46.5 µM (inactive) | GI50 [20]: > 100 µM (inactive) | GI50 [21]: 28 µM (inactive) | GI50 [22]: 20.7 µM (inactive) | GI50 [55]: 29 µM (inactive) | GI50 [23]: 61 µM (inactive) | GI50 [24]: 13.6 µM (inactive) | GI50 [25]: 36.1 µM (inactive) | GI50 [27]: 19.4 µM (inactive) | GI50 [28]: 20.8 µM (inactive) | GI50 [29]: 21 µM (inactive) | GI50 [30]: 40.6 µM (inactive) | GI50 [32]: 86.5 µM (inactive) | GI50 [33]: 27.1 µM (inactive) | GI50 [34]: 52.6 µM (inactive) | GI50 [35]: 32.3 µM (inactive) | GI50 [36]: 44.6 µM (inactive) | GI50 [37]: > 100 µM (inactive) | GI50 [38]: 21.5 µM (inactive) | GI50 [39]: 23.7 µM (inactive) | GI50 [40]: 19.9 µM (inactive) | GI50 [41]: 25.4 µM (inactive) | GI50 [56]: 43.5 µM (inactive) | GI50 [57]: 25.8 µM (inactive) | GI50 [42]: 25.4 µM (inactive) | GI50 [58]: 41.3 µM (inactive) | GI50 [43]: 27.8 µM (inactive) | GI50 [44]: > 100 µM (inactive) | GI50 [45]: 22.7 µM (inactive) | GI50 [46]: 25.8 µM (inactive) | GI50 [48]: 18.3 µM (inactive) | GI50 [50]: 23.6 µM (inactive) | GI50 [51]: 73.8 µM (inactive)

O=C1C(Cl)=C(N2CCN(CCOCCO)CC2)C(=O)c2c(O)ccc(O)c21
GI50 [2]: 3.28 µM (inactive) | GI50 [3]: 0.453 µM | GI50 [8]: 1.75 µM (inactive) | GI50 [52]: 2.38 µM (inactive) | GI50 [54]: 2.1 µM (inactive) | GI50 [14]: 0.458 µM (active) | GI50 [55]: 0.0272 µM (active) | GI50 [23]: 1.66 µM (inactive) | GI50 [35]: 2.65 µM (inactive) | GI50 [38]: 0.422 µM (active) | GI50 [40]: 0.104 µM (active) | GI50 [41]: 0.0869 µM (active) | GI50 [56]: 0.64 µM (active) | GI50 [42]: 1.77 µM (inactive) | GI50 [58]: 3.08 µM (inactive) | GI50 [44]: 2.77 µM (inactive)

CCCCCOP(=O)(OCCCCC)C(NC(C)=O)(C(=O)OCC)C(F)(F)F (centres undefined)
GI50 [2]: > 100 µM (inactive) | GI50 [3]: > 100 µM | GI50 [5]: > 100 µM (inactive) | GI50 [53]: > 100 µM (inactive) | GI50 [11]: > 100 µM (inactive) | GI50 [13]: > 100 µM (inactive) | GI50 [14]: > 100 µM (inactive) | GI50 [15]: > 100 µM (inactive) | GI50 [18]: > 100 µM (inactive) | GI50 [20]: > 100 µM (inactive) | GI50 [21]: > 100 µM (inactive) | GI50 [55]: > 100 µM (inactive) | GI50 [23]: > 100 µM (inactive) | GI50 [24]: > 100 µM (inactive) | GI50 [25]: > 100 µM (inactive) | GI50 [26]: > 100 µM (inactive) | GI50 [28]: > 100 µM (inactive) | GI50 [31]: > 100 µM (inactive) | GI50 [34]: > 100 µM (inactive) | GI50 [35]: > 100 µM (inactive) | GI50 [36]: > 100 µM (inactive) | GI50 [37]: > 100 µM (inactive) | GI50 [39]: > 100 µM (inactive) | GI50 [40]: > 100 µM (inactive) | GI50 [41]: > 100 µM (inactive) | GI50 [56]: > 100 µM (inactive) | GI50 [57]: > 100 µM (inactive) | GI50 [42]: > 100 µM (inactive) | GI50 [45]: > 100 µM (inactive) | GI50 [47]: > 100 µM (inactive) | GI50 [50]: > 100 µM (inactive) | GI50 [51]: > 100 µM (inactive)

CCOC(=O)c1sc2c(c1OC(=O)c1ccccc1)c(=O)n(-c1ccccc1)c(=S)n2-c1ccccc1
GI50 [1]: 19.1 µM (inactive) | GI50 [2]: 25.1 µM (inactive) | GI50 [3]: 45.5 µM | GI50 [4]: 49.7 µM (inactive) | GI50 [5]: 22.9 µM (inactive) | GI50 [6]: > 100 µM (inactive) | GI50 [7]: 87.3 µM (inactive) | GI50 [8]: > 100 µM (inactive) | GI50 [52]: 68.7 µM (inactive) | GI50 [10]: 40.3 µM (inactive) | GI50 [11]: > 100 µM (inactive) | GI50 [12]: 97.9 µM (inactive) | GI50 [54]: 23.6 µM (inactive) | GI50 [14]: 63.7 µM (inactive) | GI50 [15]: 23.7 µM (inactive) | GI50 [16]: 15.9 µM (inactive) | GI50 [17]: 40.6 µM (inactive) | GI50 [18]: 16.2 µM (inactive) | GI50 [19]: 70.1 µM (inactive) | GI50 [20]: 20.3 µM (inactive) | GI50 [21]: 19.9 µM (inactive) | GI50 [22]: 24.5 µM (inactive) | GI50 [55]: 36 µM (inactive) | GI50 [23]: 20.6 µM (inactive) | GI50 [24]: 23.6 µM (inactive) | GI50 [25]: 63.8 µM (inactive) | GI50 [26]: 15.5 µM (inactive) | GI50 [27]: 40.3 µM (inactive) | GI50 [28]: 41.8 µM (inactive) | GI50 [29]: 34.3 µM (inactive) | GI50 [30]: 33.7 µM (inactive) | GI50 [31]: 21.7 µM (inactive) | GI50 [32]: 20.7 µM (inactive) | GI50 [33]: 21 µM (inactive) | GI50 [34]: 32.2 µM (inactive) | GI50 [35]: 34.1 µM (inactive) | GI50 [37]: 38.2 µM (inactive) | GI50 [38]: 25.7 µM (inactive) | GI50 [39]: 40.2 µM (inactive) | GI50 [40]: 28.4 µM (inactive) | GI50 [41]: 42.8 µM (inactive) | GI50 [56]: 19.2 µM (inactive) | GI50 [57]: 38.5 µM (inactive) | GI50 [58]: 19.3 µM (inactive) | GI50 [43]: 19.8 µM (inactive) | GI50 [44]: 26.1 µM (inactive) | GI50 [45]: 20.9 µM (inactive) | GI50 [46]: 44.6 µM (inactive) | GI50 [47]: 29.4 µM (inactive) | GI50 [48]: 43.5 µM (inactive) | GI50 [49]: 12.4 µM (inactive) | GI50 [50]: 32 µM (inactive) | GI50 [51]: 28.5 µM (inactive)
